Experimental data from US20190117770A1, “USES OF IMMUNOCONJUGATES TARGETING CD138” (Biotest AG, priority 2011, published 2019).

Key:
[1] = literature; cited from earlier work
[2] = system: primary mammary tumor of a patient; experiment: Mammary carcinoma xenograft; format: in vivo, NMRI (nude) mice
[3] = system: human derived breast cancer model with CD138 IHC score 2-3; experiment: Breast cancer model, CD138 IHC score 2-3; format: in vivo, NMRI nude mice; conditions: 10 mg/kg
Source text: The results are shown in terms of the effect on the mean relative tumor volume in the model relative to an intravenous administration of PBS. For the calculation of the median relative tumor volume on day, see FIG. 33.

primary pancreatic tumor = experiment: Example 9 xenograft (FIG. 38); format: in vivo, NMRI (nude) mice; conditions: 10 mg/kg; treatment period and treatment free period
Source text: The results are shown in terms of the effect on the mean relative tumor volume.

[4] = system: human derived breast cancer model with CD138 IHC score 1-2; experiment: Breast cancer model, CD138 IHC score 1-2; format: in vivo, NMRI nude mice; conditions: 10 mg/kg
Source text: No difference in the treatment regimens was observed. The results are shown in terms of the effect on the mean relative tumor volume in the model relative to an intravenous administration of PBS. For the calculation of the median relative tumor volume on day, see FIG. 33.

CD138 expression = experiment: Effect of lenalidomide on CD138 expressing cells in vitro; conditions: different cell lines, 24 h incubation (FIG. 32)
RPMI 8226 = experiment: Synergy determination in cell lines (Chou and Talalay); format: cell-based; conditions: drug in combination with BT062
Description: Combination studies in xenograph mouse models were preceded by studies in cell lines. […] Here, IC50 values for the cytotoxic effects for each drug and each cell line are calculated, and then IC50 ratios for each drug pair. The cells were then exposed to dilution series of either these drug mixtures, or the drugs alone. Experimental data were analyzed using the CompuSyn software (ComboSyn, Inc., Paramus, N.J.). Combination Indexes (CI) for each independent experiment were calculated and reported separately. In the analysis, CI less than 1, equal to 1 and more than 1 indicates synergy, additivity and antagonism, respectively. According to the classification of T. C.

[5] = system: MOLP8 multiple myeloma cells; experiment: MOLP8 xenograft, combination BT062 and VELCADE; format: in vivo, mice
Source text: The ACTIVITY RATING is another measurement for the effects of a combination. This rating is based on the Log10 cell kill
where (T-C) or tumor growth delay, is the median time in days required for the treatment group (T) and the control group (C) tumours, to reach a predetermined size (600 mm^3).

[6] = Clinical trials of other immunoconjugates (literature); format: in vivo, human; conditions: assuming 70 kg and 1.9 m^2 body surface area
[7] = cited from earlier work

COc1cc2cc(c1Cl)N(C)C(=O)C[C@H](OC(=O)[C@H](C)N(C)C(=O)CCS)[C@]1(C)O[C@H]1[C@H](C)[C@@H]1C[C@@](O)(NC(=O)O1)[C@H](OC)/C=C/C=C(\C)C2 [DM1, N^2-deacetyl-N^2-(3-mercapto-1-oxopropyl)-maytansine]
cytotoxicity, fold more cytotoxic than maytansine [1]: 3- to 10 fold

COc1cc2cc(c1Cl)N(C)C(=O)C[C@H](OC(=O)[C@H](C)N(C)C(=O)CCC(C)(C)S)[C@]1(C)O[C@H]1[C@H](C)[C@@H]1C[C@@](O)(NC(=O)O1)[C@H](OC)/C=C/C=C(\C)C2 [DM4, N^2′-deacetyl-N^2′-(4-methyl-4-mercapto-1-oxopentyl)-maytansine, reference compound]
tumor response ([2]; amount corresponding to that in 4 mg BT062): did not result in tumor response

CC(=O)O[C@@]12CO[C@@H]1C[C@H](O)[C@@]1(C)C(=O)[C@H](O)C3=C(C)[C@@H](OC(=O)[C@H](O)[C@@H](NC(=O)OC(C)(C)C)c4ccccc4)C[C@@](O)([C@@H](OC(=O)c4ccccc4)[C@H]21)C3(C)C [Docetaxel, reference compound]
tumor response [3]: response
tumor response (primary pancreatic tumor): complete remission
tumor response [4]: did not respond

Nc1cccc2c1CN(C1CCC(=O)NC1=O)C2=O (centres unmarked) [Lenalidomide]
CD138 expression (CD138 expression): concentration dependent CD138 decrease
Estimate of synergistic result (RPMI 8226): Synergistic

CC(=O)O[C@H]1C(=O)[C@@]2(C)[C@H]([C@H](OC(=O)c3ccccc3)[C@]3(O)C[C@H](OC(=O)[C@H](O)[C@@H](NC(=O)c4ccccc4)c4ccccc4)C(C)=C1C3(C)C)[C@]1(OC(C)=O)CO[C@@H]1C[C@@H]2O [Taxol, Paclitaxel, reference compound]
tumor response ([2]; 10 mg/kg): only a minor tumor growth delay

CC(C)C[C@H](NC(=O)[C@H](Cc1ccccc1)NC(=O)c1cnccn1)B(O)O [Velcade, bortezomib, reference compound]
effect on the tumor volume ([5]; VELCADE treatment alone (FIG. 31)): no effect
Tumor free survivors day 67 ([5]; Velcade 1 mg/kg): 0/6
log cell kill ([5]; Velcade 1 mg/kg): 0.0

COc1cc2cc(c1Cl)N(C)C(=O)C[C@H](OC(=O)[C@H](C)N(C)C(C)=O)[C@]1(C)O[C@H]1[C@H](C)[C@@H]1C[C@@](O)(NC(=O)O1)[C@H](OC)/C=C/C=C(\C)C2 [maytansine]
cytotoxicity, fold higher than Vinca alkaloids or taxol [1]: 200-1000 fold

SAR3419
Corresponds to total concentration of [6]: 110 mg
patients with a response ([7]; 22 patients at the MTD (55 mg/m^2)): 36%
patients achieving an objective response ([7]; 38 patients at 20 mg/m^2 or higher, weekly, B-cell NHL): 32%
MTD, single administration every three weeks ([7]; literature): 160 mg/m^2

SGN-35
Corresponds to total concentration of [6]: 84 mg
Once weekly regimen, dose administered ([7]; literature): Up to 1.2 mg/kg

B1: IMGN242: analog of cantuzumab mertansine, huC242-DM4 (conjugate, chains of the INN, looked up)
VH: QVQLVQSGAEVKKPGETVKISCKASDYTFTYYGMNWVKQAPGQGLKWMGWIDTTTGEPTYAQKFQGRIAFSLETSASTAYLQIKSLKSEDTATYFCARRGPYNWYFDVWGQGTTVTVSS
VL: DIVMTQSPLSVPVTPGEPVSISCRSSKSLLHSNGNTYLYWFLQRPGQSPQLLIYRMSNLVSGVPDRFSGSGSGTAFTLRISRVEAEDVGVYYCLQHLEYPFTFGPGTKLELK
modifications: DM4 maytansinoid conjugate
subjects experiencing dose-limiting toxicity ([7]; 223 mg/m^2 once every 3 weeks, second cycle): 2 of 6

B2: SGN-75: anti-CD70; MMAF (SEATTLE GENETICS) (conjugate, chains of the INN, looked up)
VH: QVQLVQSGAEVKKPGASVKVSCKASGYTFTNYGMNWVRQAPGQGLKWMGWINTYTGEPTYADAFKGRVTMTRDTSISTAYMELSRLRSDDTAVYYCARDYGDYGMDYWGQGTTVTVSS
VL: DIVMTQSPDSLAVSLGERATINCRASKSVSTSGYSFMHWYQQKPGQPPKLLIYLASNLESGVPDRFSGSGSGTDFTLTISSLQAEDVAVYYCQHSREVPWTFGQGTKVEIK
modifications: MMAF conjugate
MTD, once weekly regimen ([7]; literature): not been reached)
